Data set [1] can be described thus: Blood glucose after nose-to-brain (N2B) delivery of IGF-1. The format is in vivo, Wistar rats. Particulars: 1.0-hour after N2B IGF-1 150 μg, n=4/group.
The conditions of data set [2]: within 30 minutes of N2B administration; cited from earlier work.
Data set [3] has as its system trigeminal ganglion malondialdehyde. Briefly: Malondialdehyde (oxidative stress) immunostaining of trigeminal ganglion after recurrent spreading depression. The format is in vivo, rat. Here is the method:
N2B delivery of 150 μg human recombinant IGF-1 (#191-G1; R&D Systems, Minneapolis, MN) in 50 μL sodium succinate buffer followed the previously described approach (21,51) that was based on the techniques of Liu and coworkers (24) in the recording laboratory under isoflurane anesthesia with spontaneous ventilation.
Induction of recurrent SD followed previously published aseptic techniques from the inventors' laboratory (8, 13, 21, 25, 26, 51) (FIG. 4). […]
Imaging was performed using a Photometrics self-calibrating digital camera QuantEM-512SC camera (500×500 pixels; Photometrics, Tucson, AZ) run on MetaMorph software (v. 7.0.4; Molecular Devices, Sunnyvale, CA) under blinded conditions (as previously described (13, 20-22). Image exposure, camera gain and thresholding were uniformly set (i.e., equivalently for experimental and sham groups for each imaging metric (i.e., MDA, CGRP and c-fos). Resultant images were digitally stored as TIFF files for subsequent analyses that continued under blinded conditions where image integrated fluorescence intensity was registered using MetaMorph software for MDA and CGRP.
Images of MDA and CGRP were analyzed while blinded and later decoded to ratios of experimental/sham image integrated optical intensity, a sensitive metric that not only accounts for the area but also the pixel intensity of related image fluorescence. […]

For the next data set, the system named is mechanical hyperalgesia. Briefly: Acid saline-induced fibromyalgia model, hind paw withdrawal threshold by electronic von Frey. The class given is in vivo, female Wistar rats. The conditions noted are these: nasal IGF-1 150 μg/dose on PD-2, PD-5, PD-8; experiments FM-7 and FM-8, n=3/group. An excerpt:
However, due to its simplicity and reproducibility, a widely-used, non-inflammatory rodent model which mimics chronic, widespread muscle pain-like behavior was utilized. This fibromyalgia model consists of two unilateral injections of acid saline into the gastrocnemius muscle which produce bilateral, long-lasting mechanical hyperalgesia for up to 4 weeks without motor deficits or tissue damage observed histologically (Sluka et al., 2001), Hind paw withdrawal thresholds obtained using an electronic von Frey device were used as a measure of “inferred pain”.
Experimental Procedures here are described utilizing intranasal IGF-1 for treatment of pain related to the acid saline-induced fibromyalgia model. […]
Testing consists of placing rats in an acrylic cage module [23 cm×24 cm×14.6 cm (W×L×H)] which rests upon an elevated wire mesh grid floor (FIG. 21). […] The force at which this response occurs is recorded automatically by the electronic device and is designated as the paw withdrawal threshold (FIG. 22). […]
Two investigators were used for all experiments. […] The second investigator recorded paw withdrawal threshold (PWT) force levels, procedures modeled after the experimental strategy reported by Martinov et al., 2013. […]
Specifically, baseline (BA) measurements of paw withdrawal threshold (PWT) were determined for six animals/experiment prior to experimental treatment. […]

Values joined by “and” are separate entries in the source; they are usually repeats but may differ in a detail not shown here. Identical values can stand only once. “Also recorded” adds a separate entry of the source.

With “IGF-1: human recombinant IGF-1 (#191-G1; R&D Systems), 150 μg in 50 μL sodium succinate buffer, delivered nose-to-brain”, the blood glucose level in data set [1] worked out at 139 ± 24 mg/dL. For the same substance, the “levels in the trigeminal ganglion relative to levels in the olfactory bulb” value in data set [2] was around 10 fold. The “reduction of malondialdehyde levels in the trigeminal ganglion after recurrent SD” value in data set [3] (N2B IGF-1 150 μg a day before 90 minutes of recurrent SD, p<0.001) was 82% and 83%. The “natural logarithm ratio (IGF-1/sham) of MDA immunostaining after recurrent SD” value in data set [3] (n=5/group) was −1.37±0.40. In the data set with mechanical hyperalgesia, the “hind paw withdrawal threshold / pain-related behavior” value is “significant and continued reduction in pain-related behavior; also recorded: protection against acid-induced hind paw hyperalgesia”.

(Values after US12324827B2, “Combination therapy for the treatment of migraines” (The University of Chicago, priority 2019, dated 2025).)
